Here are results for two molecules from PMC10729961, “Putative purine nucleoside interacting residues in the malaria parasite purine uptake transporter PfENT1 are critical for transporter function” (PLOS ONE, 2023).

“Also recorded” adds a separate entry of the source.

The subject of experiment [1] is PfENT1 D287A. As to conditions: yeast expressing D287A, Y190A background; cited from earlier work.
The subject of experiment [2] is PfENT1 D287A. As to conditions: cited from earlier work.
The subject of experiment [3] is PfENT1 Q135A. As to conditions: yeast expressing Q135A, Y190A background; cited from earlier work.
Experiment [4] concerns PfENT1 W53A. As to conditions: yeast expressing W53A, Y190A background; cited from earlier work.
For experiment [5], the system named is PfENT1 R291A. As to conditions: yeast expressing R291A, Y190A background; cited from earlier work.
In experiment [6] the test system is PfENT1 W53A. As to conditions: cited from earlier work.
The subject of experiment [7] is PfENT1 Q135A. As to conditions: cited from earlier work.
The subject of experiment [8] is PfENT1 R291A. As to conditions: cited from earlier work.
A further experiment deals with PfENT1 S49A. As to conditions: cited from earlier work.
Experiment [9] has as its system yeast expressing R291C PfENT1. The experiment in a line: 5-Fluorouridine (5-FUrd) toxicity assay. As to conditions: 500 μM adenine plus 125 μM 5-FUrd, OD600 at 24 h. The format is cell-based. On the procedure:
(§1) 5-FUrd toxicity was measured in a subset of the PfENT1 mutants. Mutants were grown overnight in SDM with 1 mM adenine. Meanwhile, purine auxotrophic yeast were grown in YPD overnight. Yeast strains were spun down and resuspended in sterile water then added to the honeycomb plates with SDM media with NP40 (final concentration of 0.1%) containing either no adenine, 500 μM adenine, or 500 μM adenine plus 125 μM 5-FUrd (Fisher Scientific Cat. #AAJ6208303) with an initial OD600 = 0.05 and a final volume of 150 μL. Typically, 10 μL of yeast (final concentration of resuspended yeast OD600 = around 0.8) were added to 140 μL of media. Each trial contained triplicates. The 100-well honeycomb plate was placed in the Bioscreen C for 24-h under continuous high shaking at 30°C. The endpoint OD600 was measured at 24 h. Each experiment was repeated at least three times on separate days.

Experiment [10] has as its system yeast expressing Q135C PfENT1. The experiment is described as follows: 5-Fluorouridine (5-FUrd) toxicity assay. The format is cell-based. As to conditions: 500 μM adenine plus 125 μM 5-FUrd, OD600 at 24 h. On the procedure:
as §1

Experiment [11] has as its system purine auxotrophic yeast (ade2Δ, fui1Δ). The experiment is described as follows: 5-Fluorouridine (5-FUrd) toxicity assay. It is filed as cell-based. As to conditions: ade2Δ strain; 500 μM adenine plus 125 μM 5-FUrd; OD600 at 24 h. How it is done:
as §1

In experiment [12] the test system is yeast expressing S290C PfENT1. The experiment is described as follows: 5-Fluorouridine (5-FUrd) toxicity assay. As to conditions: 500 μM adenine plus 125 μM 5-FUrd, OD600 at 24 h. The format is cell-based. On the procedure: as §1
Experiment [13] relates to yeast expressing N51C PfENT1. The experiment is described as follows: 5-Fluorouridine (5-FUrd) toxicity assay. As to conditions: 500 μM adenine plus 125 μM 5-FUrd, OD600 at 24 h. The format is cell-based. On the procedure: as §1
The subject of experiment [14] is yeast expressing D287C PfENT1. The experiment is described as follows: 5-Fluorouridine (5-FUrd) toxicity assay. It is filed as cell-based. As to conditions: 500 μM adenine plus 125 μM 5-FUrd, OD600 at 24 h. On the procedure: as §1
For experiment [15], the system named is yeast expressing F286C PfENT1. The experiment in a line: 5-Fluorouridine (5-FUrd) toxicity assay. The format is cell-based. As to conditions: 500 μM adenine plus 125 μM 5-FUrd, OD600 at 24 h. How it is done: as §1
Experiment [16] relates to yeast expressing W53C PfENT1. The experiment is described as follows: 5-Fluorouridine (5-FUrd) toxicity assay. As to conditions: 500 μM adenine plus 125 μM 5-FUrd, OD600 at 24 h. The format is cell-based. How it is done:
as §1

Experiment [17] concerns yeast expressing WT PfENT1. The experiment is described as follows: 5-Fluorouridine (5-FUrd) toxicity assay. The format is cell-based. As to conditions: 500 μM adenine plus 125 μM 5-FUrd, OD600 at 24 h. On the procedure: as §1
The test system of experiment [18] is yeast expressing L50C PfENT1. The experiment is described as follows: 5-Fluorouridine (5-FUrd) toxicity assay. The format is cell-based. As to conditions: 500 μM adenine plus 125 μM 5-FUrd, OD600 at 24 h. On the procedure: as §1

`O=c1[nH]cnc2c1ncn2[C@@H]1O[C@H](CO)[C@@H](O)[C@H]1O` [inosine]: the “uptake of radioactive inosine” value in the experiment with PfENT1 D287A [1], in the experiment on PfENT1 Q135A [3], in the experiment with PfENT1 W53A [4] and in the experiment on PfENT1 R291A [5] was “did not show uptake” throughout. The “inosine binding by ITC” value in the experiment with PfENT1 D287A [2] is “did not bind”; in the experiment with PfENT1 W53A [6], “bound with lower affinity”; with PfENT1 Q135A [7], “did not bind”; with PfENT1 R291A [8] it was “bound with lower affinity”; in the experiment on PfENT1 S49A, “did not bind”.

Take `O=c1[nH]c(=O)n([C@@H]2O[C@H](CO)[C@@H](O)[C@H]2O)cc1F` [5-FUrd, 5-Fluorouridine]: the 5-FUrd assay entry in [9] is listed as “did grow; also recorded: growth-non-functional*”; in [10], “did grow; also recorded: growth-non-functional*”; in experiment [11] it was “growth-non-functional”; in [12], “did grow; also recorded: growth-non-functional*”; in [13] it was “did not grow; also recorded: killed-functional”; in experiment [14], “did grow; also recorded: growth-non-functional*”. The 5-FUrd assay entry in experiment [15] is reported as “did not grow; also recorded: killed-functional”; in [16], “did grow; also recorded: growth-non-functional*”; in experiment [17], “did not grow; also recorded: killed-functional”; in experiment [18], “did not grow; also recorded: killed-functional”.
